This note sets out measurements from publication PMC8150913, “Chromene-Containing Aromatic Sulfonamides with Carbonic Anhydrase Inhibitory Properties” (International Journal of Molecular Sciences, 2021).

Each structure is given as a SMILES string.

The target of one series is T1, hCA I (Homo sapiens, UniProt P00915).
T1 construct: made in house
Put plainly: Stopped-flow CA-catalyzed CO2 hydration inhibition assay. It counts as biochemical. The note with it: stopped flow technique, mean from three different assays, recombinant enzyme, pH 7.4. The procedure:
(§1) An Applied Photophysics stopped-flow instrument was used for assaying the CA catalyzed CO2 hydration activity. Phenol red (at a concentration of 0.2 mM) was used as an indicator, working at the absorbance maximum of 557 nm, with 20 mM Hepes (pH 7.4) as a buffer, and 20 mM Na2SO4 (for maintaining constant ionic strength), following the initial rates of the CA-catalyzed CO2 hydration reaction for a period of 10–100 s. The CO2 concentrations ranged from 1.7 to 17 mM for the determination of the kinetic parameters and inhibition constants. […] However, the background activity from the uncatalyzed reaction is always subtracted when IC50 values are obtained by using the data analysis software for the stopped flow instrument. […] For each inhibitor, at least six traces of the initial 5–10% of the reaction were used for determining the initial velocity. The uncatalyzed rates were determined in the same manner and subtracted from the total observed rates. Stock solutions of the inhibitor (0.1 mM) were prepared in distilled, deionized water, and dilutions up to 0.01 nM were done thereafter with the assay buffer. Inhibitor and enzyme solutions were preincubated together for 15 min at room temperature prior to the assay, allowing the formation of the E–I complex. The inhibition constants were obtained by non-linear least-squares methods using PRISM 3 and the Cheng-Prusoff equation as reported earlier, which represent the mean from at least three different determinations. All CA isoforms were recombinant proteins obtained in house, as reported earlier.

Another series addresses T2, hCA IX (Homo sapiens, UniProt Q16790).
T2 construct: made in house
The description is as above. The format is biochemical. The note with it: stopped flow technique, mean from three different assays, recombinant enzyme, pH 7.4. As for the experimental part:
as §1

Another series has as its target T3, hCA XII (Homo sapiens, UniProt O43570).
T3 construct: made in house
Described as above. The format is biochemical. Particulars: stopped flow technique, mean from three different assays, recombinant enzyme, pH 7.4. The procedure:
as §1

The target of another series is T4, hCA II (Homo sapiens, UniProt P00918).
T4 construct: made in house
The series is described as above. The format is biochemical. Particulars: for Ki: stopped flow technique, mean from three different assays, recombinant enzyme, pH 7.4. The procedure: as §1

T3 sequence (O43570 25-354): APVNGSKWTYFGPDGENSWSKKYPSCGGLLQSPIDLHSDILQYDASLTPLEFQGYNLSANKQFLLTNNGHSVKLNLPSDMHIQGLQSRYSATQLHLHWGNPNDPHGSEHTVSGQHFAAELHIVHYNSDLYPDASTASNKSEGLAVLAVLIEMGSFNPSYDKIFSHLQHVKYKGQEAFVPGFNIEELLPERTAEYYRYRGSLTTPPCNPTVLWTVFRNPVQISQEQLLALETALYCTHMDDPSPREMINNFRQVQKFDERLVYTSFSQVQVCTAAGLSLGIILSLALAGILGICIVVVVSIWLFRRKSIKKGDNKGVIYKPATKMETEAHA
T1 sequence (P00915 whole entry): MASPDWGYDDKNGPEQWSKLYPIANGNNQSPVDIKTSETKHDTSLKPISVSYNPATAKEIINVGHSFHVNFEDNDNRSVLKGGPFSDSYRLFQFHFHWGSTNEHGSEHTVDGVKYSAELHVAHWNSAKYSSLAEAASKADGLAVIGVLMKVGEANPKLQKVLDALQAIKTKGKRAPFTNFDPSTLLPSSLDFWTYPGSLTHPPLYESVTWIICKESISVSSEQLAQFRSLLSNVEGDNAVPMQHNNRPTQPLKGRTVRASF

Consider `NS(=O)(=O)c1ccc(NC(=O)c2cc(=O)c3ccccc3o2)cc1` [5a, 4-Oxo-N-(4-sulfamoylphenyl)-4H-chromene-2-carboxamide], for which the melting point (commonly the temperature, or range, at which the solid turns liquid) lay within 296 to 298 °C. For the same compound, on hCA I, the Ki (usually the dissociation constant of the complex between target and ligand, obtained from inhibition or displacement) was 525 ± 44.4 nM. For the same compound, at hCA IX, the Ki was 16.6 ± 1.5 nM. The Ki on hCA XII is 20.1 ± 1.7 nM. Moreover, the Ki at hCA II came to 35.1 ± 3.3 nM.
The like results for `Cc1ccc2oc(C(=O)Nc3ccc(S(N)(=O)=O)cc3)cc(=O)c2c1` [5b, 6-Methyl-4-oxo-N-(4-sulfamoylphenyl)-4H-chromene-2-carboxamide] were, in that order, 307 to 308 °C, 5310 ± 272 nM, 77 ± 6.5 nM, 64.8 ± 6.1 nM and 95.9 ± 8 nM.
`Cc1ccc2c(=O)cc(C(=O)Nc3ccc(S(N)(=O)=O)cc3)oc2c1` [5c, 7-Methyl-4-oxo-N-(4-sulfamoylphenyl)-4H-chromene-2-carboxamide]: the melting point fell in the range of 309 to 311 °C. Moreover, the Ki on hCA I came to 3560 ± 228 nM. For the same compound, the Ki at hCA IX was found to be 63.4 ± 6.3 nM. Further, the Ki on hCA XII was found to be 50.8 ± 4.3 nM. For the same compound, the Ki on hCA II worked out at 39.5 ± 3.2 nM.
`CCc1ccc2oc(C(=O)Nc3ccc(S(N)(=O)=O)cc3)cc(=O)c2c1` [5d, 6-Ethyl-4-oxo-N-(4-sulfamoylphenyl)-4H-chromene-2-carboxamide] showed a melting point of 297 to 299 °C.
The compound `Cc1cc2oc(C(=O)Nc3ccc(S(N)(=O)=O)cc3)cc(=O)c2cc1C` [5e, 6,7-Dimethyl-4-oxo-N-(4-sulfamoylphenyl)-4H-chromene-2-carboxamide] registered a melting point of 310 to 312 °C. Also, at hCA I, the inhibitory constant (Ki) came to 2890 ± 161 nM. In addition, the Ki on hCA IX came to 299 ± 18.4 nM. Moreover, at hCA XII, the Ki came to 619 ± 36.7 nM. Moreover, the Ki on hCA II came to 311 ± 28.3 nM.
Taken in the same sequence, the figures for `Cc1ccc2c(=O)cc(C(=O)Nc3ccc(S(N)(=O)=O)cc3)oc2c1C` [5f, 7,8-Dimethyl-4-oxo-N-(4-sulfamoylphenyl)-4H-chromene-2-carboxamide] were 328 to 330 °C, 341 ± 29.6 nM, 19.5 ± 1.6 nM, 76.3 ± 6 nM and 9.3 ± 0.5 nM.
Taken in the same sequence, the figures for `Cc1cc(C)c2c(=O)cc(C(=O)Nc3ccc(S(N)(=O)=O)cc3)oc2c1` [5g, 5,7-Dimethyl-4-oxo-N-(4-sulfamoylphenyl)-4H-chromene-2-carboxamide] were 304 to 306 °C, 682 ± 40.6 nM, 54.7 ± 5 nM, 46.4 ± 4.4 nM and 61.4 ± 4.4 nM.
`Cc1cc(C)c2oc(C(=O)Nc3ccc(S(N)(=O)=O)cc3)cc(=O)c2c1` [5h, 6,8-Dimethyl-4-oxo-N-(4-sulfamoylphenyl)-4H-chromene-2-carboxamide] returned a melting point of 309 to 311 °C. Moreover, on hCA I, the Ki was determined as 505 ± 27 nM. Further, the Ki on hCA IX stood at 22.5 ± 1.9 nM. Moreover, the Ki at hCA XII came out at 26.8 ± 1.4 nM. Also, the Ki at hCA II amounted to 46.6 ± 2.9 nM.
The like results for `NS(=O)(=O)c1ccc(NC(=O)c2cc(=O)c3cc(Cl)ccc3o2)cc1` [5i, 6-Chloro-4-oxo-N-(4-sulfamoylphenyl)-4H-chromene-2-carboxamide] were, in that order, 296 to 298 °C, 2700 ± 265 nM, 51 ± 4.8 nM, 425 ± 41 nM and 66.2 ± 5.8 nM.
On to `Cc1cc2oc(C(=O)Nc3ccc(S(N)(=O)=O)cc3)cc(=O)c2cc1Cl` [5j, 6-Chloro-7-methyl-4-oxo-N-(4-sulfamoylphenyl)-4H-chromene-2-carboxamide], for which the melting point was in the range of 305 to 307 °C. The Ki at hCA I amounted to 580 ± 50.5 nM. Also, the Ki at hCA IX amounted to 516 ± 37.2 nM. At hCA XII, the inhibition constant Ki was 155 ± 10.1 nM. For the same compound, the Ki on hCA II is 901 ± 75.4 nM.
Taken in the same sequence, the figures for `NS(=O)(=O)c1ccc(CNC(=O)c2cc(=O)c3ccccc3o2)cc1` [6a, 4-Oxo-N-(4-sulfamoylbenzyl)-4H-chromene-2-carboxamide] were 284 to 286 °C, 628 ± 35.5 nM, 855 ± 49.2 nM, 34 ± 2.2 nM and 219 ± 11.8 nM.
The like results for `Cc1ccc2oc(C(=O)NCc3ccc(S(N)(=O)=O)cc3)cc(=O)c2c1` [6b, 6-Methyl-4-oxo-N-(4-sulfamoylbenzyl)-4H-chromene-2-carboxamide] were, in that order, 293 to 295 °C, 612 ± 49.5 nM, 2040 ± 189 nM, 320 ± 23.2 nM and 81.7 ± 4.2 nM.
Taken in the same sequence, the figures for `NS(=O)(=O)c1ccc(CNC(=O)c2cc(=O)c3cc(Cl)ccc3o2)cc1` [6c, 6-Chloro-4-oxo-N-(4-sulfamoylbenzyl)-4H-chromene-2-carboxamide] were 299 to 301 °C, 2650 ± 227 nM, 3280 ± 302 nM, 59.4 ± 5 nM and 679 ± 45 nM.
Take `NS(=O)(=O)c1ccc(CCNC(=O)c2cc(=O)c3ccccc3o2)cc1` [6d, 4-Oxo-N-(4-sulfamoylphenethyl)-4H-chromene-2-carboxamide]: the melting point lay within 248 to 250 °C. Further, the Ki on hCA I amounted to 322 ± 27.9 nM. For the same compound, the Ki on hCA IX was determined as 81 ± 7.7 nM. Further, the Ki at hCA XII amounted to 212 ± 13.7 nM. The Ki on hCA II turned out to be 16.6 ± 1.2 nM.
The like results for `Cc1ccc2oc(C(=O)NCCc3ccc(S(N)(=O)=O)cc3)cc(=O)c2c1` [6e, 6-Methyl-4-oxo-N-(4-sulfamoylphenethyl)-4H-chromene-2-carboxamide] were, in that order, 257 to 259 °C, 247 ± 24.3 nM, 72.7 ± 4.3 nM, 439 ± 32.2 nM and 36.4 ± 2.1 nM.
On to `Cc1ccc2c(=O)cc(C(=O)NCCc3ccc(S(N)(=O)=O)cc3)oc2c1` [6f, 7-Methyl-4-oxo-N-(4-sulfamoylphenethyl)-4H-chromene-2-carboxamide], for which the melting point was 253 to 255 °C. Besides, on hCA I, the Ki was 334 ± 17.5 nM. For the same compound, the Ki on hCA IX came out at 64.8 ± 3.4 nM. The Ki on hCA XII amounted to 337 ± 27.4 nM. Moreover, on hCA II (ratio of Ki values), the “selectivity index (SI) hCA II compared to hCA I” value amounted to 44.47 and the “selectivity index (SI) hCA II compared to hCA XII” value was 44.97. For the same compound, the Ki at hCA II worked out at 7.5 ± 0.5 nM.
On to `CCc1ccc2oc(C(=O)NCCc3ccc(S(N)(=O)=O)cc3)cc(=O)c2c1` [6g, 6-Ethyl-4-oxo-N-(4-sulfamoylphenethyl)-4H-chromene-2-carboxamide], for which the melting point was in the range of 257 to 259 °C. Besides, the Ki on hCA I is 971 ± 82.4 nM. Moreover, the Ki on hCA IX was 183 ± 16.1 nM. For the same compound, the Ki at hCA XII came to 148 ± 8.1 nM. Further, on hCA II, the Ki was 280 ± 15.5 nM.
Taken in the same sequence, the figures for `Cc1cc2oc(C(=O)NCCc3ccc(S(N)(=O)=O)cc3)cc(=O)c2cc1C` [6h, 6,7-Dimethyl-4-oxo-N-(4-sulfamoylphenethyl)-4H-chromene-2-carboxamide] were 282 to 284 °C, 547 ± 39.2 nM, 51.4 ± 4.5 nM, 22.6 ± 1.5 nM and 51.2 ± 3.6 nM.
The like results for `Cc1ccc2c(=O)cc(C(=O)NCCc3ccc(S(N)(=O)=O)cc3)oc2c1C` [6i, 7,8-Dimethyl-4-oxo-N-(4-sulfamoylphenethyl)-4H-chromene-2-carboxamide] were, in that order, 280 to 282 °C, 214 ± 15.9 nM, 84.5 ± 4.3 nM, 132 ± 11 nM and 39.2 ± 3.7 nM.
The like results for `Cc1cc(C)c2oc(C(=O)NCCc3ccc(S(N)(=O)=O)cc3)cc(=O)c2c1` [6j, 6,8-Dimethyl-4-oxo-N-(4-sulfamoylphenethyl)-4H-chromene-2-carboxamide] were, in that order, 283 to 285 °C, 4410 ± 347 nM, 91.1 ± 8.9 nM, 31.4 ± 2.6 nM and 143 ± 12.8 nM.
The compound `NS(=O)(=O)c1ccc(CCNC(=O)c2cc(=O)c3cc(Cl)ccc3o2)cc1` [6k, 6-Chloro-4-oxo-N-(4-sulfamoylphenethyl)-4H-chromene-2-carboxamide] came in with a melting point of 285 to 287 °C. In addition, the Ki at hCA I was 927 ± 68.9 nM. For the same compound, the inhibition constant Ki on hCA IX amounted to 1920 ± 146 nM. Further, the Ki at hCA XII worked out at 41.4 ± 3.4 nM. The Ki at hCA II worked out at 91.6 ± 7 nM.
